Test results taken from patent US6881584B1, “Infrared thermography” (SmithKline Beecham Corporation, priority 1998, dated 2005).
Blank lines part the entries; values can stand above or below the molecule they belong to.

What was measured:
thoracic area = test: Infrared thermography of thoracic area of nude mice treated with inhalant; format: in vivo; details: vs vehicle
Description: (§1) Male AKR/J, C57BL/6J, and SWR/J mice were purchased from 4-8 weeks of age from Jackson Laboratories (Bar Harbor, Me.). Mice were fed high and low fats diets containing high sucrose as defined by Surwit et al., (Metabolism 44(5):645-651 (1995)). After 14 weeks on these diets, the intrascapular fur was shaved, the animals were dosed (intraperitineal) with 1 mg/kg of BRL37344, and the animals were anesthetized with isofluorane. Nude mice (BALB/C) were 6-8 weeks old and were dosed with inhalant two times before thermal profiling. The Lewis rat strain (200-250 g) were used for both the MED and inflammation experiments. Infrared thermographic images and temperature calculations were recorded using an Agema Thermovision 900 Infrared System.
Furthermore, the bioavailability and bioactivity of inhalants in animals and man is often difficult to measure and quantitate. Assays available for measuring bioavailabilty of inhalants involve measuring the uptake of radiolabeled inhalant in selected tissues (eg. lung). Infrared thermography provides a non-invasive method for measuring the bioavailibilty/bioactivity of inhalant compounds. Thus, infrared thermography was used to measure the thermal activity induced by an inhalant in the thoracic area of nude mice.

[1] = test system: intrascapular brown adipose tissue (IBAT); test: IBAT thermogenesis in ob/ob mice treated with PPARγ agonist; format: in vivo; details: two weeks treatment, compared to control animals
Description: (§2) Heat generation was measured using a Stirling cooled Agema Thermovision 900 Infrared System AB (Marietta, Ga.) equipped with a SW Scanner and 40°×25° lens which detects a 2-5.4 micron spectral response. […] The focal distance was 6 cm. Images were captured using a recurs function set at 16 or an averaging function set at 32. The data was analyzed using OS-9 advanced systems and ERIKA 2.00 software according to the manufacturer's specifications (FLIR Infrared Systems AB, Danderyd, Sweden). Thermography of adipocytes was performed by maintaining the ambient temperature of the cultured cells at 37±0.02° C. using a Queue Systems Inc. (Parkersburg, W.Va.) incubator, model QWJ500SABA. Spectral analysis of yeast was performed at 30±0.02° C. using the same incubator system. After treating the cells with experimental agents (e.g., rotenone etc.), the temperature was equilibrated for 10 minutes in the incubator before measuring real time thermogenesis for all microtiter plate applications. Various color scales in the visible wavelength were used to depict the temperature fluctuations of the recorded images. Although temperature scales are constant, the color scale images are variable and can be adjusted with level and span controls.

C3H10T1/2 cells = test: Infrared thermography of heat production in differentiating C3H10T1/2 cells (PPARγ agonists); format: cell-based; details: in the presence of insulin and 9-cis retinoic acid (FIG. 7), read-out: EC50(μM), thermogenesis and lipogenesis assays
Description: (§3) Human subcutaneous adipocytes were purchased from Zen-Bio, Inc. (Research Triangle Park, N.C.). C3H10T1/2 clone 8 fibroblasts were differentiated into adipocytes as previously described (Lenhard et al, Biochem. Pharmacol. 54:801-808 (1997), Paulik and Lenhard, Cell Tissue Res. 290:79-87 (1997)). After 7 days in culture, triglyceride accumulation was determined by adding lipoprotein lipase and GPO-Trinder reagent (assay kit 337-B, Sigma Diagnostics, St. Louis, Mo.) to the cells (50 μl/cm^2) and incubating the lysates at 37° C. for 2 hours. The optical density was measured using a spectrophotometer set at a wavelength of 540 nm. Lipolysis was measured as previously described (Lenhard et al, Biochem. Pharmacol. 54:801-808 (1997)).
Heat generation was measured using a Stirling cooled Agema Thermovision 900 Infrared System AB (Marietta, Ga.) equipped with a SW Scanner and 40°×25° lens which detects a 2-5.4 micron spectral response. […] The focal distance was 6 cm. Images were captured using a recurs function set at 16 or an averaging function set at 32. The data was analyzed using OS-9 advanced systems and ERIKA 2.00 software according to the manufacturer's specifications (FLIR Infrared Systems AB, Danderyd, Sweden). […] Various color scales in the visible wavelength were used to depict the temperature fluctuations of the recorded images. […]

C3H10T1/2 adipocytes [2] = test: Lipolysis in adipocytes treated with β-AR-agonists; format: cell-based; details: Mus musculus, C3H 10T1/2, read-out: EC50 (nM) Lipolysis
Description: as §3
(§4) As a control, the effects of β-AR-agonists on lipolysis was also measured. […] In general, this expands to measuring thermogenic activity of both catabolic and anabolic mediated-effects of potential drug candidates.

[3] = target: T1, beta 3 adrenergic receptor (β3AR) (Homo sapiens, UniProt P13945); test: Infrared thermography of CHO cells overexpressing the β3AR receptor; format: cell-based
T1 construct: expressed in transfected cells; host or cells: Chinese Hamster Ovary (CHO) cells
Description: as §2

C3H10T1/2 adipocytes [4] = test: Infrared thermography of thermogenesis in cultured adipocytes (β-AR-agonists); format: cell-based; details: for EC50: Mus musculus
Description: as §3, §2
The β3-AR-agonists are candidate therapeutic agents for the treatment of diabetes and obesity. Although, the mechanism of action for these agents is thought to involve increased metabolic rate (Scarpace, Ann. N.Y. Acad. Sci. 813:111-116 (1997)), it has yet to be shown that β-AR-agonists increase heat output by adipocytes. Therefore, it was determined whether infrared imaging could be used to monitor the effects of β-AR-agonists on thermogenesis in cultured adipocytes.
as §4

genitalia = test: Thermogenesis in rat genitalia (male erectile dysfunction); format: in vivo; details: rats, 2 hours after PO dosing, 3.0 or 0.3 mg/kg
Description: as §1
Male erectile dysfunction (MED) is treatable with drugs that increase blood flow to the genitalia. Increased local thermogenesis is associated with increased local blood flow. One drug that acts in this manner and treats MED is Pinacidil. […] Thus, infrared thermography provides a quantitative and non-invasive method for identifying and evaluating drug candidates for the MED indication as well as identifying candidates that can cause erection as a side effect.

yeast = format: cell-based; details: dose response, relative to untreated cells
human adipocytes = test: Infrared thermography of human adipocytes in 96-well plates; format: cell-based; details: dose response, relative to untreated cells
UCP2 = test: Infrared thermography of yeast expressing UCP2; format: cell-based; details: galactose-induced UCP2
Description: Human skeletal muscle cDNA (#7175-1) was purchased from Clontech (Palo Alto, Calif.). UCP2 specific-sequences were PCR amplified from the sample using oligonucleotide primers that matched the 5′ and 3′ ends of a published sequence (GenBank U82819). Vent polymerase was used (New England Biolabs, Beverly, Mass.) in a standard reaction mixture with 2 mM MgSO4 and 5% DMSO. The cycle parameters were 94° C. for 1 min., 55° C. for 1 min., and 72° C. for 1 min., repeated 29 times. The sample was passed over an S-400 spin column (Pharmacia, Piscataway, N.J.) prior to ligation in a vector for transformation of E. coli. The authenticity of the clone was confirmed by DNA sequence analysis. For the experiments in yeast, the UCP2 coding sequence was amplified by PCR using primers with the sequence […] AAGGCCA (SEQ ID NO:1) (sense) and […] (SEQ ID NO:2) (antisense) followed by a second PCR using primers with the sequence […] (SEQ ID NO:3) (sense) and […] (SEQ ID NO:4) (antisense). The PCR product was cloned into pYX233 (R&D Systems) by homologous recombination in yeast strain W303 (a/a homozygous for ade2-1, his3-1, 15 leu2-3, 112, trp1-1, ura3-1). Yeast transformants were selected on BSM-trp agar (Bio 101, Vista, Calif.). The correct UCP2 sequence was verified by sequencing plasmids back-extracted from yeast to E. coli. […]

hair-loss = test: Chemotherapy-induced hair-loss by infrared thermography in newborn pups treated in utero; format: in vivo, rat; details: 6 mg/kg
From the text: Hair loss can result from undesirable side-effects of various therapies (e.g., radiation treatment of cancer patients, surgery etc.) and can occur naturally with age, whereas surgical or pharmacological intervention can restore hair growth. Since hair provides insulation against heat loss and aids in the maintenance of a constant body temperature, it was of interest to determine if infrared thermography can be used to measure hair loss. The lack of progress in the treatment and prevention of chemotherapy-induced alopecia is in part due to the lack of a reproducible animal model as well as a quantitative method to measure hair-loss. To determine if infrared imaging can be used to quantitatively measure chemotherapy induced hair-loss, newborn rat pups that were treated in utero with the known cancer agent, etoposide, were thermally profiled for hair-loss.

tissue vascularization = details: nude mice, vs control injection
Description: Nude mice were injected with either VEGF peptide or a control followed by themographic imaging of both injection sites.

HUVEC cells = details: 10 minutes
Description: as §2

liver = format: in vivo; details: ob/ob mice, 0.1-1 mg/kg i.p., 90 minutes, dose-dependent
Description: FIG. 29. Liver thermogenesis in ob/ob mice 90 minutes after treatment with lipopolysaccharide (LPS) detected by IR thermography. Male ob/ob mice were housed and maintained as described in FIG. 1. Mice were dosed at 0.0, 0.1, 0.3, or 1 mg/kg LPS in water vehicle (0.5 mL i.p.; n=10 per dose) and anesthetized using isoflurane as described above 90 minutes after treatment. The abdomens of the anesthetized mice were surgically opened to expose the liver and Bioclusive adhesive was placed over the entire exposed area. IR images of the liver region were acquired and analyzed as detailed in FIG. 28. […] Quantification of the IR signal in the liver region is shown in the bottom panel. Data are means±SEM for n=10 animals per group. Asterisks (*) denote statistical differences from control (p<0.05, ANOVA with Student-Newman-Keuls post hoc tests).
Use of IR transparent adhesive to image liver thermogenesis in vivo. […] Indeed, temperature measurements obtained by IR thermography correlated well with liver toxicity measured as AST release (r=0.99). In addition, temperature changes measured using IR thermography correlated with alanine aminotransferase (ALT) release, another marker of liver injury (r=0.76, data not shown).

T1 sequence (P13945 whole entry): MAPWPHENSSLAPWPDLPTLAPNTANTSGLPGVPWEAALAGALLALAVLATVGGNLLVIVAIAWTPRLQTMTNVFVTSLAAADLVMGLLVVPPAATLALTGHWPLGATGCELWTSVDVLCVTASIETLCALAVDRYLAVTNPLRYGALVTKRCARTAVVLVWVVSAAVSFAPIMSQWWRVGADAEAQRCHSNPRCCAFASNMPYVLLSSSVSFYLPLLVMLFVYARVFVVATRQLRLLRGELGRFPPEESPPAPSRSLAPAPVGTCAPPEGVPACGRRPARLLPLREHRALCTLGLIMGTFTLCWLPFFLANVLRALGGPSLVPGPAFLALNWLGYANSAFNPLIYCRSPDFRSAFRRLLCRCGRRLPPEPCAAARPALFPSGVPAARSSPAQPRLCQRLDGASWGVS

Molecule: CC(C)(C)NCC(O)c1ccc(O)c(CO)c1 (centres unmarked) [Albuterol]
- torso area temperature (thoracic area): torso temperature increases after 2.5 minutes

- EC50 (C3H10T1/2 cells): 0.052 µM
Molecule: CN(CCOc1ccc(C[C@H](Nc2ccccc2C(=O)c2ccccc2)C(=O)O)cc1)c1ccccn1 [GW1929]
- IBAT thermogenesis [1]: reduction in IBAT thermogenesis

Molecule: CC(C)NCC(O)c1ccc(O)c(O)c1 (centres unmarked) [Isoproterenol]
- EC50 (C3H10T1/2 adipocytes [2]): 27.1 nM
- thermogenic response of CHO cells [3]: responsive in a dose-dependent manner
- stimulation of thermogenesis (C3H10T1/2 adipocytes [4]; C3H10T1/2 adipocytes): stimulated
- EC50 (C3H10T1/2 adipocytes [4]; C3H 10T1/2, adipocytes, infrared thermography, dose response, read-out: EC50 (nM) Thermogenesis): 28 nM

Molecule: CC(N/C(=N\C#N)Nc1ccncc1)C(C)(C)C (centres unmarked) [Pinacidil]
- thermogenesis in the genitalia (genitalia): increase in thermogenesis

Molecule: C=C(C)[C@H]1Cc2c(ccc3c2O[C@@H]2COc4cc(OC)c(OC)cc4[C@@H]2C3=O)O1 [Rotenone]
- thermogenesis in yeast (yeast): inhibited thermogenesis
- EC50 (C3H10T1/2 adipocytes [4]; C3H 10T1/2, read-out: EC50 (nM) Thermogenesis): 8.5 nM
- thermogenesis of cells treated with β-AR-agonists (C3H10T1/2 adipocytes [4]; cells treated with 50 nM of the various β-AR-agonists): inhibited thermogenesis
- thermogenesis in human adipocytes (human adipocytes): inhibited thermogenesis
- UCP2-mediated thermogenesis (UCP2): inhibited

Molecule: COc1cc([C@@H]2c3cc4c(cc3[C@@H](O[C@@H]3O[C@@H]5CO[C@@H](C)O[C@H]5[C@H](O)[C@H]3O)[C@H]3COC(=O)[C@H]23)OCO4)cc(OC)c1O [etoposide]
- thermal activity as a result of hair-loss (hair-loss): increased thermal activity in both the fronts and backs as a result of hair-loss

Molecule: VEGF
- thermogenesis in local area of injection (tissue vascularization): enhanced thermogenesis
- thermogenesis in HUVEC cells (HUVEC cells): induced thermogenesis

Molecule: lipopolysaccharide [LPS]
- liver thermogenesis (liver): thermogenesis is increased
